The numbers were not newly measured in patent US20080255231A1, “POLYMORPHS OF RIVASTIGMINE HYDROGENTARTRATE” (priority 2007, published 2008), which cites them from elsewhere.

SMILES strings stand for the structures.

`CCN(C)C(=O)Oc1cccc([C@H](C)N(C)C)c1` [Rivastigmine hydrogentartrate, [3-[α-(Dimethylamino)-ethyl]phenyl]-N-methylethylcarbamate hydrogentartrate]: the solubility in acetonitrile result (acetonitrile) is “soluble”. Under “ethanol”, the solubility in ethanol entry was “soluble”. In addition, the “solubility in ethyl acetate” value (ethyl acetate) is reported as “very slightly soluble”. For the same compound, where the note is “n-octanol”, the solubility in n-octanol entry is “slightly soluble”. Further, the solubility in water entry (water) is listed as “very soluble”.
